Measurements reported in PMC2858264 (Biochemistry, 2010).

Biological target: T1, rR-HPCDH1 (Xanthobacter versatilis, UniProt Q56840)
T1 sequence (Q56840 2-250): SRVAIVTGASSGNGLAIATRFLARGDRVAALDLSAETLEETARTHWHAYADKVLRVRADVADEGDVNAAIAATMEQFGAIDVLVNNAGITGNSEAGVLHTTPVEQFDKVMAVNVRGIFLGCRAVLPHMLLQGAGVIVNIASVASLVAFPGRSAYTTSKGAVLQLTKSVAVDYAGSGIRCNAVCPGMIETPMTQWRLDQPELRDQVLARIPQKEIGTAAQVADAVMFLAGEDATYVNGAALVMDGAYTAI
Assay: NADH absorbance at […] nm, initial rates
Format: biochemical

- Ki: 290 ± 14 µM
SMILES: CC(C)(O)CSCCS(=O)(=O)O [M-HPC, 2-(2-methyl-2-hydroxypropylthio)ethanesulfonate]
